Measurements taken from patent US6497898B1, “Surfactant, and an emulsion-type cosmetic composition and a lipsome containing said surfactant” (Kanebo LTD, priority 1993, dated 2002).

Tested on: skin
Assay: Safety test: skin irritation patch test of the surfactants
Format: in vivo
Details: Sample (solution) per table head; patch on 20 subjects for 24 hours, evaluated 24 hours after removing; clear erythema = positive
Procedure: As a safety test on the above trehalose-6-fatty acid esters, irritation to skin was examinaed in accordance with the following procedures.
[…] Irritaion was evaluated 24 hours after removing the patch. […] Sodium laurylphosphate used as a control is a surfactant which is usually used in shampoos, body shampoos and the like.

SMILES | Irritation to skin, positive, % [%]
C=CCCCCCCCCC(=O)OCC1OC(OC2OC(CO)C(O)C(O)C2O)C(O)C(O)C1O (stereo not shown) [6-(10-Undecylenyl)-trehalose, 6-(10-undecylenyl)-trehalose] | 0
CCCCCCCCCCCC(=O)OCC1OC(OC2OC(CO)C(O)C(O)C2O)C(O)C(O)C1O (stereo not shown) [6-Lauroyl-trehalose, 6-lauroyl-trehalose] | 0
CCCCCCCCCCCCCCCCCC(=O)OC[C@H]1O[C@H](O[C@H]2O[C@H](CO)[C@@H](O)[C@H](O)[C@H]2O)[C@H](O)[C@@H](O)[C@@H]1O [6-Stearoyl-trehalose, 6-stearoyl-trehalose] | 0
CCCCCCCCCCCCOP(=O)([O-])O.[Na+] [Monosodium lauryl phosphate, reference compound] | 0.5
